The test system of experiment [1] is Staphylococcus aureus. As to the kind of experiment: in vivo antibiotic action in mice infected with Staphylococcus aureus. The note with it: single dose of 200 mg/kg.
The test system of experiment [2] is Mycobacterium tuberculosis TB H37 Rv and Staphylococcus aureus. As to the kind of experiment: antibiotic action, in vitro and in vivo tests as a whole.
In experiment [3] the target is RNA polymerase of Escherichia coli (Escherichia coli, UniProt P0A8V2). As to the kind of experiment: inhibition of the RNA polymerase of Escherichia coli in vitro. Type of experiment: biochemical. To be noted: not achieved even with 100 μg/ml. An excerpt: The antibiotic action is ascertained, for example, on the one hand in vitro by determining the mean effective concentration EC50 for the inhibition of the RNA polymerase of Escherichia coli and by determining the minimum inhibitory concentration MIC in a conventional plate test, and on the other hand in vivo, using infected mice and rats, by determining the ED50 (effective dose that ensures the survival of 50% of the experimental animals). There are used as micro-organisms for the present purpose especially Mycobacterium tuberculosis TB H37 Rv and Staphylococcus aureus. In the case of compounds having a lipid-reducing indication, an antibiotic activity is regarded as disadvantageous since it can result in the formation of strains of micro-organisms that are resistant to antibiotics, especially when the compounds are administered over a prolonged period.

The test system of experiment [4] is serum lipoproteins (VLDL, LDL and HDL). As to the kind of experiment: reduction of serum lipoproteins (VLDL, LDL and HDL) in genetically hypercholesterolaemic rats (procedure A) and normolipaemic rats (procedure B). Type of experiment: in vivo. The note with it: repeated administration of 30 mg/kg daily, oral. The method, then: In contrast, the diacyl compounds of the present invention have, if at all, only a marginal antibiotic action.
Albino rats having a body weight of from 180 to 240 g and having free access to normal rat food and drinking water are used, Sprague Dawley derivatives of the strain Tif:RAI in procedure A and animals of the Wistar strain IVa-WI in procedure B. The test compound is administered orally in a polyethylene glycol solution (average molecular weight 400) to groups of from 8 to 10 rats, in procedure A once daily at 8 a.m. for three consecutive days and twice, at 8 a.m. and 4 p.m., on the fourth day, and in the case of procedure B, daily for 5 consecutive days. In experiment A the animals are sacrificed 16 hours, and in experiment B two hours, after the final administration by bleeding from the neck under anaesthesia with ether. The animals are given no food during the 16 hours before they are sacrificed. […] The serum lipoproteins are separated using an unltracentrifuge by means of 24-hour centrifugation at 78,000 g, 78,000 g and 109,000 g in salt solutions having densities of 1.006, 1.040 and 1.21, respectively, and are analysed enzymatically for their content of cholesterol and triglycerides using the test systems supplied, for example, by Miles (Lausanne, Switzerland) and Bohringer (Mannheim, Federal Republic of Germany).

Experiment [5] concerns Staphylococcus aureus. As to the kind of experiment: minimum inhibitory concentration in a conventional plate test. The note with it: read-out: MIC for various pathogenic strains of Staphylococcus aureus. Type of experiment: cell-based.

Molecules are shown by their SMILES. Converted amounts (≈) assume the structure as drawn. A value given as a limit tells only on which side of the number the result lay.

Chain of RNA polymerase of Escherichia coli (P0A8V2 whole entry): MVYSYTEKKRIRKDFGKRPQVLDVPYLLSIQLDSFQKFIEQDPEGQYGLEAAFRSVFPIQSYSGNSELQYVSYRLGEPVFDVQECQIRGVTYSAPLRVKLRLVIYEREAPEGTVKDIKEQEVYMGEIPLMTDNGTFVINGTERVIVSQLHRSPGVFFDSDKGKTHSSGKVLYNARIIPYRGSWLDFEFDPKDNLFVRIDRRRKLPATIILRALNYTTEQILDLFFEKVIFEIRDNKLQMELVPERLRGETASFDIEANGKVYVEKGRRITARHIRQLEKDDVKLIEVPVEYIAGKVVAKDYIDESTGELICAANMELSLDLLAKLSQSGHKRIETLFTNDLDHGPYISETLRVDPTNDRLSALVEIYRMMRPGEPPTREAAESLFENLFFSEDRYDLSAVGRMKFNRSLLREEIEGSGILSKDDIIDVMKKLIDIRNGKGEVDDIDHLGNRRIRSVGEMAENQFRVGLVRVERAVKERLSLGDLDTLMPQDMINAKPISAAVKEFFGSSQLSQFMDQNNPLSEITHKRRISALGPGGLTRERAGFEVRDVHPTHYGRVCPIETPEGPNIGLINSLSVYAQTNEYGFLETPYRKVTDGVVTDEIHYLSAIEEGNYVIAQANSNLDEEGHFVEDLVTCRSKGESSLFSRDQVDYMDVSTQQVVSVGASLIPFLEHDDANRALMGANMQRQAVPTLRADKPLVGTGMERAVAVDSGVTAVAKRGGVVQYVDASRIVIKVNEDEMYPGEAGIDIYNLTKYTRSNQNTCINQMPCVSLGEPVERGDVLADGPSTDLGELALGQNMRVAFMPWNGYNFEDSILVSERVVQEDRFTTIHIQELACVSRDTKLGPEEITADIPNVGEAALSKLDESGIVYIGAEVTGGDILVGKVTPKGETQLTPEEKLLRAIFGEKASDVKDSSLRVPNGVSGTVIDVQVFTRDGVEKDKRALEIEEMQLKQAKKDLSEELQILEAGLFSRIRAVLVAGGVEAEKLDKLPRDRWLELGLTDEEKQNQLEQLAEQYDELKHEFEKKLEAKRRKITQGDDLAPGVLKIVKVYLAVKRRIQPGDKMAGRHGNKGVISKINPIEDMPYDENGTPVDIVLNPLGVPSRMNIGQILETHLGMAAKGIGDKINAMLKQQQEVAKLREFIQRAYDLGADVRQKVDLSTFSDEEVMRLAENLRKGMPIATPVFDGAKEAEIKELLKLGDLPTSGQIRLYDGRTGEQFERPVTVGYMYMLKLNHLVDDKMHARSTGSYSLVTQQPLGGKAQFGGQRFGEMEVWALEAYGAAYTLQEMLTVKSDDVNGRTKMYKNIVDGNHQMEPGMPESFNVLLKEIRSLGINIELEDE
Chain of RNA polymerase of Escherichia coli (P0A8T7 whole entry partner): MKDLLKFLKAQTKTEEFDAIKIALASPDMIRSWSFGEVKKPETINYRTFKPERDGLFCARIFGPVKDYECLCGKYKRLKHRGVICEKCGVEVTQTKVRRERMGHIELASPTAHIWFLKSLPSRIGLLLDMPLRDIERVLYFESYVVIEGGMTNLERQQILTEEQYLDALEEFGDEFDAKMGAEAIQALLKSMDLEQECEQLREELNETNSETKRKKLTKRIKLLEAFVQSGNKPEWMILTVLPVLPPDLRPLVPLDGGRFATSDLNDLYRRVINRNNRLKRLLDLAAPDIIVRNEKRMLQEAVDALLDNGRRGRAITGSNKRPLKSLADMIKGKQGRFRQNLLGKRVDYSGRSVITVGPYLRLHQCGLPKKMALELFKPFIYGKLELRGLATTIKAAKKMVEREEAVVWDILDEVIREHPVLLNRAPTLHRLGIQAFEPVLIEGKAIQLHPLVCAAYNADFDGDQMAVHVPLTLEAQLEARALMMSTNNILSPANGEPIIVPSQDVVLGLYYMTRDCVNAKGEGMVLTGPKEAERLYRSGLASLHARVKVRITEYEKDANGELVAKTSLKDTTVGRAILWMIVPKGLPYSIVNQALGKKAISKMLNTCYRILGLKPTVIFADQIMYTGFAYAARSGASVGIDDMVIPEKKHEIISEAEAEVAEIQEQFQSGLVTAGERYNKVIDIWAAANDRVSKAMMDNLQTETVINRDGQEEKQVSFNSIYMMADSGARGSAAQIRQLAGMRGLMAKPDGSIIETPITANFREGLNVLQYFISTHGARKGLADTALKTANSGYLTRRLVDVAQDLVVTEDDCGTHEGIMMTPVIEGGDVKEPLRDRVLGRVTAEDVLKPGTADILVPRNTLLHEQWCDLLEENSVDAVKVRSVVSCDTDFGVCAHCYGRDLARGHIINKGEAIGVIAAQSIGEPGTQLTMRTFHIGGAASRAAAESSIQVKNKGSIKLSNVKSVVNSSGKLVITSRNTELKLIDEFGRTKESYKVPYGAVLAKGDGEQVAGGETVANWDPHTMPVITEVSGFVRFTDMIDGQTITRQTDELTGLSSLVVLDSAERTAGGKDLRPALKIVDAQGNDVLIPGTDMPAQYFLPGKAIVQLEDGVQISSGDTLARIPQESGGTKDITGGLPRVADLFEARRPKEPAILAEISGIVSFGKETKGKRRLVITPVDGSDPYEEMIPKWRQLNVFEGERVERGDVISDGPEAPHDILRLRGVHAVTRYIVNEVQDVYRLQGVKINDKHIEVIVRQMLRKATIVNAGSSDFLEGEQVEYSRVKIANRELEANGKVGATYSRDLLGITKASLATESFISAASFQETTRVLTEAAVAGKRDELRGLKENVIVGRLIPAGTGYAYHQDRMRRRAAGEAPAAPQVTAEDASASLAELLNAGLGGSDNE
Chain of RNA polymerase of Escherichia coli (P0A7Z4 whole entry partner): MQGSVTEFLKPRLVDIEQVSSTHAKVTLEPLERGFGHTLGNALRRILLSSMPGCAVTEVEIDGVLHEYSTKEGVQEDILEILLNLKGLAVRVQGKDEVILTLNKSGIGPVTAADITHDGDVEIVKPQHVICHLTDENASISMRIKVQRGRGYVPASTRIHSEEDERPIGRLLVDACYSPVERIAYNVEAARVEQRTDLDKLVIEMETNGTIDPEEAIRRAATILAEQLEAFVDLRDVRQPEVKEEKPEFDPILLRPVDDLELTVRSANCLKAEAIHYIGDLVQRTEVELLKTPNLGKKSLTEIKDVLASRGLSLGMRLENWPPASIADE
Chain of RNA polymerase of Escherichia coli (P0A800 2-91 partner limits assumed): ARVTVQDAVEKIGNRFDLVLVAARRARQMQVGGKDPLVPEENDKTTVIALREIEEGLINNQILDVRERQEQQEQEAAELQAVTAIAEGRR

In the case of `COC1C=COC2(C)Oc3c(C)c(OC(=O)C(C)(C)C)c4c(c3C2=O)C(=O)C(N2CCN(Cc3c(C)cc(C)cc3C)CC2)=C(C4=O)N(C(=O)C(C)(C)C)C(=O)C(C)=CC=CC(C)C(O)C(C)C(O)C(C)C(OC(C)=O)C1C` (stereo not drawn) [8-O,N-dipivaloyl-3-[4-(2,4,6-trimethylbenzyl)-1-piperazinyl]-rifamycin S], in the experiment on Staphylococcus aureus [1], the “antibiotic activity in vivo” value was “antibiotically inactive”. Besides, the antibiotic activity result in experiment [2] (overall statement) was “practically no antibiotic activity”. For the same compound, the “EC50 and MIC values relative to concentrations normally necessary for a corresponding effect” value in experiment [2] (refers to RNA polymerase EC50 and Staphylococcus aureus MIC) is listed as “approximately 1000 times”. Besides, the concentration giving a half-maximal response (EC50) in experiment [3] is > 92.6 µM. The “reduction in the "LDL fraction"” value in experiment [4] is given as 50-70%. Moreover, in the experiment with Staphylococcus aureus [5], the MIC was ~64 µg/mL (≈ 59.2 µM).

For the origin of these results see US4916126A, “Diacyl derivatives of 4-(trialkylbenzyl)-piperazinyl compounds” (Ciba-Geigy Corporation, priority 1988, dated 1990).
